Assay results published in patent US9394298B2, “Pyrroloquinoline quinone tetraalkali salt and crystal thereof, methods for producing these, and composition” (Mitsubishi Gas Chemical Company, Inc., priority 2012, dated 2016).
Structures can show the parent of a compound that is named as a salt. Where two headings read alike, the source gives them in different places.

Tests used:
Format in all cases: physicochemical
Test of the solubility = conditions: for Solubility Ratio: ratio to Comp. Ex. 1 (Na2PQQ = 1); for Solubility: room temperature of 23° C., calculated from absorbance at 260 nm
Method: 50 mg of each PQQ salt shown in Table 6 was added to 0.5 mL of water so as to become supersaturated. Here, in the case where a PQQ salt was completely dissolved in this concentration, the amount of water was reduced. Thereafter, an ultrasonic wave was applied on the solution at room temperature of 23° C. The solution was subjected to a centrifugal separator; and the supernatant was subjected to a UV measurement by diluting it using a phosphoric acid buffer (pH: 7.4, manufactured by Gibco Corp.) so that the absorbance at 260 nm became in the range of 0 to 1. The solubility was calculated from the absorption.

[1] = Test of the reactivity with ascorbic acid; conditions: for State of the solution after adding ascorbic acid, after 2 hours / State of the solution after adding ascorbic acid, after 1 day: 1 g/L PQQ salt in water, 1 mL + 0.5 mL of 100 g/L ascorbic acid aqueous solution
Method: Each PQQ salt shown in Table 5 was dissolved in water so as to become 1 g/L. 0.5 mL of a 100 g/L ascorbic acid aqueous solution was added to 1 mL of the solution, and its states after 2 hours, after 1 day and after 2 days were observed.

[2] = Test of the dissolution speed; conditions: 1 mg salt in 2 mL water; for Absorbance After 1 min / Absorbance After 30 min: absorbance at 450 nm, fully dissolved = 100
Method: 1 mg of each PQQ salt shown in Table 7 was added to an acryl-made absorbance measurement cell, and 2 mL of water was added thereto and the absorbance at 450 nm was measured.

[3] = Stability in alkalinity, from the liquid chromatography chart; conditions: solid obtained from alkaline solution
Method: PQQ was identified using the following apparatus.
Apparatus: a high performance liquid chromatography system, Lc-20A, manufactured by Shimadzu Corp.
Column: YMC-Pack ODS-Tms (5 μm), 150×4.6 mm I.D.
Measurement temperature: 40° C.
Detection: absorbance at 260 nm

## O=C([O-])c1cc(C(=O)[O-])c2c(n1)C(=O)C(=O)c1cc(C(=O)O)[nH]c1-2.[Na+].[Na+] [Comp. Ex. 1, PQQ Disodium Salt, reference compound]
Test of the solubility
  Solubility Ratio: 1
Test of the solubility; water
  Solubility: 7.99 mM
[1]
  State of the solution after adding ascorbic acid, after 2 hours: brown deposit
  State of the solution after adding ascorbic acid, after 1 day: brown deposit
[2]
  Absorbance After 1 min: 41
  Absorbance After 30 min: 48

## O=C(O)c1cc(C(=O)O)c2c(n1)C(=O)C(=O)c1cc(C(=O)O)[nH]c1-2 [Comp. Ex. 2, PQQ Trisodium Salt, reference compound]
Test of the solubility
  Solubility Ratio: 3.8
Test of the solubility; water
  Solubility: 30.4 mM
[1]; Trisodium Salt
  State of the solution after adding ascorbic acid, after 2 hours: brown deposit
  State of the solution after adding ascorbic acid, after 1 day: brown deposit

## O=C(O)c1cc(C(=O)O)c2c(n1)C(=O)C(=O)c1cc(C(=O)O)[nH]c1-2 [Example 1, PQQ Tetrasodium Salt]
Test of the solubility
  Solubility Ratio: 58
Test of the solubility; thermodynamic from solid, water, read-out: Solubility
  Solubility: 463 mM
[1]
  State of the solution after adding ascorbic acid, after 2 hours: red solution
  State of the solution after adding ascorbic acid, after 1 day: red solution
  Color change with ascorbic acid in a long-term observation: hardly generated color change
[2]
  Dissolution speed, in words: higher dissolution speed than the PQQ disodium salt
  Absorbance After 1 min: 88
  Absorbance After 30 min: 92

## O=C(O)c1cc(C(=O)O)c2c(n1)C(=O)C(=O)c1cc(C(=O)O)[nH]c1-2.[Li].[Li].[Li].[Li] [Example 5, PQQ Tetralithium Salt]
Test of the solubility
  Solubility Ratio: 82
Test of the solubility; water, 23° C.
  Solubility, in words: more easily dissolved than the PQQ tetrasodium salt
Test of the solubility; water
  Solubility: 655 mM
[1]
  State of the solution after adding ascorbic acid, after 2 hours: red solution
  State of the solution after adding ascorbic acid, after 1 day: red solution
[3]
  Decomposed substances / stability in the alkalinity: no decomposed substances and was stable even in the alkalinity

## O=C(O)c1cc(C(=O)O)c2c(n1)C(=O)C(=O)c1cc(C(=O)O)[nH]c1-2.[Li].[Li].[Na].[Na] [Example 6, PQQ Disodium Dilithium Salt]
Test of the solubility
  Solubility Ratio: 11
Test of the solubility; water
  Solubility: 89 mM
[1]
  State of the solution after adding ascorbic acid, after 2 hours: red solution
  State of the solution after adding ascorbic acid, after 1 day: red solution
[3]
  Decomposed substances / stability in the alkalinity: no decomposed substances and was stable even in the alkalinity

## O=C(O)c1cc(C(=O)O)c2c(n1)C(=O)C(=O)c1cc(C(=O)O)[nH]c1-2.[K].[K].[K].[K] [Example 7, PQQ tetrapotassium salt]
Test of the solubility
  Solubility Ratio: 10.5
Test of the solubility; water
  Solubility: 84 mM
[1]
  State of the solution after adding ascorbic acid, after 2 hours: red solution
  State of the solution after adding ascorbic acid, after 1 day: red solution
  Color change with ascorbic acid in a long-term observation: hardly generated color change
[2]
  Absorbance After 1 min: 71
  Absorbance After 30 min: 85
[3]
  Decomposed substances / stability in the alkalinity: no decomposed substances and was stable even in the alkalinity
